Measurements: the NIST ThermoML archive (doi:10.1021/je800110r)
Values joined by “and” are separate entries in the source; they are usually repeats but may differ in a detail not shown here. Identical values can stand only once. Numbers after ± are expanded uncertainties.

Conditions: Liquid, Vibrating tube method

CCCCCCCCCC [decane]
Conditions | mass density
303.16 K, 24314 kPa | 740.3 ± 2 kg/m3
303.16 K, 24549 kPa | 740.5 ± 2 kg/m3
303.16 K, 24602 kPa | 740.4 ± 2 kg/m3
303.16 K, 24630 kPa | 740.5 ± 2 kg/m3
303.16 K, 24682 kPa | 740.5 ± 2.1 kg/m3
303.16 K, 24710 kPa | 740.6 ± 2.1 kg/m3
303.16 K, 24755 kPa | 740.6 ± 2.1 kg/m3
303.16 K, 24776 kPa | 740.5 ± 2.1 kg/m3
303.16 K, 25088 kPa | 740.7 ± 2.1 kg/m3
303.16 K, 25114 kPa | 740.9 ± 2.1 kg/m3
303.16 K, 25147 kPa | 740.9 ± 2.1 kg/m3
303.16 K, 25173 kPa | 740.9 ± 2.1 kg/m3
303.16 K, 25208 kPa | 740.9 ± 2.1 kg/m3
303.16 K, 25234 kPa | 740.9 ± 2.1 kg/m3
303.16 K, 25263 kPa | 740.9 ± 2.1 kg/m3
303.16 K, 25293 kPa | 741 ± 2.1 kg/m3
303.16 K, 25324 kPa | 740.9 ± 2.1 kg/m3
303.16 K, 25354 kPa | 741.1 ± 2.1 kg/m3
303.16 K, 25385 kPa | 741.1 ± 2.1 kg/m3
303.16 K, 25420 kPa | 741.1 ± 2.1 kg/m3
303.16 K, 25450 kPa | 741 ± 2.1 kg/m3
303.16 K, 25481 kPa | 741.1 ± 2.1 kg/m3
303.16 K, 25524 kPa | 741.1 ± 2.1 kg/m3
303.16 K, 25559 kPa | 741.1 ± 2.1 kg/m3
303.16 K, 25586 kPa | 741.1 ± 2.1 kg/m3
303.16 K, 25617 kPa | 741.1 ± 2.1 kg/m3
303.16 K, 25802 kPa | 741.3 ± 2.1 kg/m3
303.17 K, 10063 kPa | 730.2 ± 2 kg/m3
303.17 K, 10074 kPa | 730.3 ± 2 kg/m3
313.14 K, 1292 kPa | 715.7 ± 2 kg/m3
313.14 K, 1332 kPa | 715.8 ± 2 kg/m3
313.14 K, 1362 kPa | 715.8 ± 2 kg/m3
313.14 K, 1410 kPa | 715.8 ± 2 kg/m3
313.14 K, 1449 kPa | 715.7 ± 2 kg/m3
313.14 K, 1483 kPa | 715.9 ± 2 kg/m3
313.14 K, 1531 kPa | 715.8 ± 2 kg/m3
313.14 K, 1584 kPa | 715.9 ± 2 kg/m3
313.14 K, 1629 kPa | 716 ± 2 kg/m3
313.14 K, 1669 kPa | 716 ± 2 kg/m3
313.14 K, 1710 kPa | 716.1 ± 2 kg/m3
313.14 K, 1760 kPa | 716.1 ± 2 kg/m3
313.14 K, 1825 kPa | 716.1 ± 2 kg/m3
313.14 K, 1889 kPa | 716.2 ± 2 kg/m3
313.14 K, 1951 kPa | 716.3 ± 2 kg/m3
313.14 K, 2000 kPa | 716.3 ± 2 kg/m3
313.14 K, 2044 kPa | 716.3 ± 2 kg/m3
313.14 K, 2096 kPa | 716.3 ± 2 kg/m3
313.14 K, 2138 kPa | 716.4 ± 2 kg/m3
313.14 K, 2175 kPa | 716.4 ± 2 kg/m3
313.14 K, 2217 kPa | 716.4 ± 2 kg/m3
313.14 K, 2260 kPa | 716.5 ± 2 kg/m3
313.14 K, 2304 kPa | 716.5 ± 2 kg/m3
313.14 K, 2364 kPa | 716.6 ± 2 kg/m3
313.14 K, 2419 kPa | 716.7 ± 2 kg/m3
313.14 K, 2474 kPa | 716.7 ± 2 kg/m3
313.14 K, 2523 kPa | 716.8 ± 2 kg/m3
313.14 K, 2591 kPa | 716.7 ± 2 kg/m3
313.14 K, 2653 kPa | 716.8 ± 2 kg/m3
313.14 K, 2699 kPa | 716.8 ± 2 kg/m3
313.14 K, 2782 kPa | 717 ± 2 kg/m3
313.14 K, 2826 kPa | 717.1 ± 2 kg/m3
313.14 K, 2854 kPa | 717 ± 2 kg/m3
313.14 K, 2900 kPa | 716.9 ± 2 kg/m3
313.14 K, 2941 kPa | 717.2 ± 2 kg/m3
313.14 K, 2970 kPa | 717 ± 2 kg/m3
313.14 K, 3000 kPa | 717.1 ± 2 kg/m3
313.14 K, 3048 kPa | 717.2 ± 2 kg/m3
313.14 K, 3086 kPa | 717.2 ± 2 kg/m3
313.14 K, 3137 kPa | 717.3 ± 2 kg/m3
313.14 K, 3192 kPa | 717.3 ± 2 kg/m3
313.14 K, 3234 kPa | 717.4 ± 2 kg/m3
313.14 K, 3277 kPa | 717.4 ± 2 kg/m3
313.14 K, 3305 kPa | 717.4 ± 2 kg/m3
313.14 K, 3306 kPa | 717.5 ± 2 kg/m3
313.14 K, 3307 kPa | 717.5 ± 2 kg/m3
313.14 K, 3322 kPa | 717.5 ± 2 kg/m3
313.14 K, 3343 kPa | 717.4 ± 2 kg/m3
313.14 K, 3360 kPa | 717.4 ± 2 kg/m3
313.14 K, 3378 kPa | 717.5 ± 2 kg/m3
313.14 K, 3404 kPa | 717.4 ± 2 kg/m3
313.14 K, 3422 kPa | 717.5 ± 2 kg/m3
313.14 K, 3447 kPa | 717.5 ± 2 kg/m3
313.14 K, 3468 kPa | 717.6 ± 2 kg/m3
313.14 K, 3499 kPa | 717.6 ± 2 kg/m3
313.14 K, 3518 kPa | 717.6 ± 2 kg/m3
313.14 K, 3549 kPa | 717.7 ± 2 kg/m3
313.14 K, 3576 kPa | 717.6 ± 2 kg/m3
313.14 K, 3598 kPa | 717.8 ± 2 kg/m3
313.14 K, 3629 kPa | 717.7 ± 2 kg/m3
313.14 K, 3654 kPa | 717.7 ± 2 kg/m3
313.14 K, 3674 kPa | 717.8 ± 2 kg/m3
313.14 K, 3693 kPa | 717.8 ± 2 kg/m3
313.14 K, 3713 kPa | 717.8 ± 2 kg/m3
313.14 K, 3739 kPa | 717.8 ± 2 kg/m3
313.14 K, 3768 kPa | 717.8 ± 2 kg/m3
313.14 K, 3821 kPa | 717.9 ± 2 kg/m3
313.14 K, 3843 kPa | 718 ± 2 kg/m3
313.14 K, 3850 kPa | 717.8 ± 2 kg/m3
313.14 K, 3853 kPa | 717.9 ± 2 kg/m3
313.14 K, 3854 kPa | 717.9 ± 2 kg/m3
313.14 K, 3856 kPa | 717.8 ± 2 kg/m3
313.14 K, 3858 kPa | 717.9 ± 2 kg/m3
313.14 K, 3860 kPa | 717.9 ± 2 kg/m3
313.14 K, 3862 kPa | 717.9 ± 2 kg/m3
313.14 K, 3864 kPa | 717.9 ± 2 kg/m3
313.14 K, 3865 kPa | 717.9 ± 2 kg/m3 and 717.8 ± 2 kg/m3
313.14 K, 3876 kPa | 717.9 ± 2 kg/m3
313.14 K, 3895 kPa | 718 ± 2 kg/m3
313.14 K, 3915 kPa | 718 ± 2 kg/m3
313.14 K, 3933 kPa | 718.1 ± 2 kg/m3
313.14 K, 3949 kPa | 717.9 ± 2 kg/m3
313.14 K, 3970 kPa | 718 ± 2 kg/m3
313.14 K, 3989 kPa | 718.1 ± 2 kg/m3
313.14 K, 4003 kPa | 718.1 ± 2 kg/m3
313.14 K, 4028 kPa | 718.1 ± 2 kg/m3
313.14 K, 4048 kPa | 718 ± 2 kg/m3
313.14 K, 4070 kPa | 718.1 ± 2 kg/m3
313.14 K, 4098 kPa | 718.1 ± 2 kg/m3
313.14 K, 4121 kPa | 718.1 ± 2 kg/m3
313.14 K, 4141 kPa | 718.2 ± 2 kg/m3
313.14 K, 4159 kPa | 718.2 ± 2 kg/m3
313.14 K, 4186 kPa | 718.2 ± 2 kg/m3
313.14 K, 4203 kPa | 718.3 ± 2 kg/m3
313.14 K, 4224 kPa | 718.3 ± 2 kg/m3
313.14 K, 4245 kPa | 718.3 ± 2 kg/m3
313.14 K, 4267 kPa | 718.3 ± 2 kg/m3
313.14 K, 4287 kPa | 718.2 ± 2 kg/m3
313.14 K, 4309 kPa | 718.3 ± 2 kg/m3
313.14 K, 4328 kPa | 718.3 ± 2 kg/m3
313.14 K, 4357 kPa | 718.4 ± 2 kg/m3
313.14 K, 4386 kPa | 718.4 ± 2 kg/m3
313.14 K, 4407 kPa | 718.4 ± 2 kg/m3
313.14 K, 4434 kPa | 718.3 ± 2 kg/m3
313.14 K, 4451 kPa | 718.4 ± 2 kg/m3
313.14 K, 4477 kPa | 718.5 ± 2 kg/m3
313.14 K, 4494 kPa | 718.5 ± 2 kg/m3
313.14 K, 4509 kPa | 718.5 ± 2 kg/m3
